# In patent publication US9050347B2, “1,2,4-oxadiazole derivatives as drugs modulating the GLP-1 peptide receptor” (VIVIABIOTECH, S.L., priority 2011, dated 2015):
# Key:
# [1] = test system: rat insulinoma cells (INS1E cells); assay: In vitro insulin secretion assay in INS1E cells; type: cell-based; settings: for enhancement of glucose-dependent insulin release caused by GLP-1 / direct activation of glucose-activated insulin secretion: rat insulinoma cells; for enhancement of glucose-dependent insulin release caused by GLP-1: GLP-1 10 nM, FIG. 3; for direct activation of glucose-activated insulin secretion: compound alone, FIG. 2
# Description: The insulin secretion studies were performed in INS1E cells cultured in RPMI 1640 medium (Invitrogen, Switzerland) containing 11 mM glucose. The culture medium was supplemented with 10 mM Hepes (pH 7.3), 10% (v/v) heat-inactivated fetal bovine serum (Brunschwig AG, Switzerland), […] b-mercaptoethanol, 1 mM sodium pyruvate, […] penicillin and […] streptomycin (INS medium). Static secretion studies were performed in culture plates with a diameter of 2.5 cm in which the cells were grown until reaching confluence criteria. The in vitro studies allowed identifying compounds with intrinsic capacity to release insulin (FIG. 2) or which enhance the incretin actions of GLP-1 (FIGS. 3, 4 and 5).
# [2] = Parenteral glucose overload assay; type: in vivo, male Wistar rats
# Description: All the in vivo experiments were performed using male Wistar rats with a weight of 200-450 g. The animals were housed in individual cages in a room with controlled temperature (23° C.) and humidity (50%) with a 12/12 light and dark cycle. The animals had water and food ad libitum except in specific experimental procedures. The animals were handled once a day during the two days before the experimental sessions. All the products were dissolved in a mixture of 5% DMSO, 5% Tween 60/90% saline and intraperitoneally administered. The vehicle was 0.9% sterile saline for the parenteral glucose overload.
# The parenteral glucose overload assay was performed in male Wistar rats (Harlan, Barcelona) deprived of food for 18 hours. The animals received an injection of sterile saline containing glucose which was administered at the dose of 2 gr/kg in a volume of 2 ml/kg. The plasma glucose levels were measured by means of glucometers in tail blood using reactive strips of glucose oxidase, at times 0, 5, 10, 15, 30, 45, 60 and 120 minutes after the administration of glucose. The animals received an injection of the drugs under study 15 minutes before the administration of intraperitoneal glucose. After measuring the glucose, an analysis under the curve for compound and dose was performed. This analysis allows evaluating the time intensity of the hyperglycemia. […]
Structure (SMILES),enhancement of glucose-dependent insulin release caused by GLP-1 [1],direct activation of glucose-activated insulin secretion [1],"physiological response (glycemia) in the parenteral glucose overload test ([2]; rats deprived of food for 18 hours, glucose 2 gr/kg, compound 15 minutes before, FIG. 6)","intensity of the hyperglycemia (area under the curve of the glycemia) ([2]; rats, parenteral glucose overload test, several doses, FIG. 7)","allosteric modulation of insulin secretion stimulated by a fixed concentration of GLP-1 ([1]; insulinoma cells, 0.2 nM GLP-1, increasing compound concentration, FIG. 5)","allosteric modulation of insulin release stimulated by increasing doses of GLP-1 ([1]; insulinoma cells, compound at 0.1 nM, FIG. 4)"
"NC(=O)C1CCN(Cc2nc(-c3ccc(C(F)(F)F)cc3)no2)CC1 [Compound C4, 1[[3-[4-(trifluoromethyl)phenyl]-1,2,4-oxadiazol-5-yl]methyl]piperidin-4-carboxamide]",enhance,direct activators,–,–,–,–
"FC(F)(F)c1ccc(-c2noc(CN3CCCC[C@H]3CCc3ccccn3)n2)cc1 [Compound C5, 5-[[(2S)-2-(2-pyridin-2-ylethyl)piperidin-1-yl]methyl]-3-[4-(trifluoromethyl)phenyl]-1,2,4-oxadiazole]",enhance,direct activators,–,–,–,–
"FC(F)(F)c1ccc(-c2noc(CN3CCCC(CN4CCOCC4)C3)n2)cc1 (stereo not shown) [Compound C6, 4-[[1[[3-[4-(trifluoromethyl)phenyl]-1,2,4-oxadiazol-5-yl]methyl]piperidin-3-yl]methyl]morpholine]",enhance,direct activators,improves the physiological response,induces in a dose-dependent manner a reduction of the intensity of the hyperglycemia,enhances in a dose-dependent manner,enhances
"O=C(CCc1ccccc1)[C@@H]1CCCN(Cc2nc(-c3ccc(C(F)(F)F)cc3)no2)C1 [Compound C1, 3-phenyl-1-[(3R)-1-[[3-[4-(trifluoromethyl)phenyl]-1,2,4-oxadiazol-5-yl]methyl]piperidin-3-yl]propan-1-one]",enhance,direct activators,–,–,–,–
"CC(=O)NCC[C@@H]1CCCCN1Cc1nc(-c2ccc(C(F)(F)F)cc2)no1 [Compound C3, N-[2-[(2S)-1-[[3-[4-(trifluoromethyl)phenyl]-1,2,4-oxadiazol-5-yl]methyl]piperidin-2-yl]ethyl]acetamide]",enhance,–,–,–,–,–
